Source: ChEMBL document CHEMBL3885861, “Open TG-GATES”

Species: Rattus norvegicus
Assay: Open TG-GATES - Regimen: Single
Type: toxicity, organism-based, Sprague-Dawley
Parameters: regimen Single, gender Male, age 6 weeks
Conditions: in vivo, po, 0 mg/kg, route gavage, dose level Control; for APTT / Bas / Eos / Fbg / Hb / Ht / Lym / MCH / MCHC / MCV / Mono / Neu / PT / Plat / RBC / Ret / WBC: tissue Blood; for KIDNEY_L / KIDNEY_R / KIDNEY_TOTAL: tissue Kidney; for LIVER: tissue Liver; for A/G / ALP / ALT / AST / BUN / CRE / Ca / Cl / DBIL / GLC / IP / K / LDH / Na / PL / RALB / TBIL / TC / TG / TP / gamma-GTP: tissue Plasma

Brc1ccccc1 [BROMOBENZENE]
TERMINAL_BW (3 h): 190.9 g | APTT (3 h): 15.7 s | Bas (3 h): 0.2% | Eos (3 h): 0.8% | Fbg (3 h): 247.4 mg/dL | Hb (3 h): 13.1 g/dL | Ht (3 h): 39.4% | Lym (3 h): 72.8% | MCH (3 h): 21.2 pg | MCHC (3 h): 33.2% | MCV (3 h): 63.8 fL | Mono (3 h): 4.2% | Neu (3 h): 21.6% | PT (3 h): 12.4 s | Plat (3 h): 117.7 x10_4/uL | RBC (3 h): 618.4 x10_4/ul | Ret (3 h): 9.8% | WBC (3 h): 108.2 x10_2/uL | KIDNEY_L (3 h): 0.9 g | KIDNEY_R (3 h): 0.8 g | KIDNEY_TOTAL (3 h): 1.7 g | LIVER (3 h): 8.1 g | A/G (3 h): 0.9 | ALP (3 h): 1539.4 IU/L | ALT (3 h): 46.2 IU/L | AST (3 h): 83.2 IU/L | BUN (3 h): 10.2 mg/dL | CRE (3 h): 0.2 mg/dL | Ca (3 h): 11.2 mg/dL | Cl (3 h): 106.2 meq/L | DBIL (3 h): 0.022 mg/dL | GLC (3 h): 186.4 mg/dL | IP (3 h): 9.4 mg/dL | K (3 h): 3.8 meq/L | LDH (3 h): 84.2 IU/L | Na (3 h): 141.6 meq/L | PL (3 h): 159.2 mg/dL | RALB (3 h): 2.6 g/dL | TBIL (3 h): 0.058 mg/dL | TC (3 h): 83.6 mg/dL | TG (3 h): 88.4 mg/dL | TP (3 h): 5.5 g/dL | gamma-GTP (3 h): 2 IU/L | TERMINAL_BW (6 h): 191.8 g | APTT (6 h): 15.7 s | Bas (6 h): 0% | Eos (6 h): 1% | Fbg (6 h): 276.2 mg/dL | Hb (6 h): 13 g/dL | Ht (6 h): 39.1% | Lym (6 h): 75.8% | MCH (6 h): 21.4 pg | MCHC (6 h): 33.3% | MCV (6 h): 64.3 fL | Mono (6 h): 3.8% | Neu (6 h): 19.2% | PT (6 h): 12.4 s | Plat (6 h): 109.8 x10_4/uL | RBC (6 h): 608.2 x10_4/ul | Ret (6 h): 9.3% | WBC (6 h): 92.3 x10_2/uL | KIDNEY_L (6 h): 0.8 g | KIDNEY_R (6 h): 0.8 g | KIDNEY_TOTAL (6 h): 1.6 g | LIVER (6 h): 7.6 g | A/G (6 h): 0.9 | ALP (6 h): 1707 IU/L | ALT (6 h): 40.8 IU/L | AST (6 h): 76.6 IU/L | BUN (6 h): 9.2 mg/dL | CRE (6 h): 0.2 mg/dL | Ca (6 h): 11 mg/dL | Cl (6 h): 107.4 meq/L | DBIL (6 h): 0.01 mg/dL | GLC (6 h): 184.2 mg/dL | IP (6 h): 10 mg/dL | K (6 h): 4 meq/L | LDH (6 h): 69.6 IU/L | Na (6 h): 141.4 meq/L | PL (6 h): 149.2 mg/dL | RALB (6 h): 2.6 g/dL | TBIL (6 h): 0.054 mg/dL | TC (6 h): 83.2 mg/dL | TG (6 h): 37.8 mg/dL | TP (6 h): 5.5 g/dL | gamma-GTP (6 h): 1.2 IU/L | TERMINAL_BW (9 h): 191.1 g | APTT (9 h): 15.4 s | Bas (9 h): 0% | Eos (9 h): 1% | Fbg (9 h): 258.4 mg/dL | Hb (9 h): 12.9 g/dL | Ht (9 h): 38.8% | Lym (9 h): 74.8% | MCH (9 h): 21.5 pg | MCHC (9 h): 33.4% | MCV (9 h): 64.4 fL | Mono (9 h): 3% | Neu (9 h): 21.2% | PT (9 h): 12.3 s | Plat (9 h): 120.5 x10_4/uL | RBC (9 h): 603 x10_4/ul | Ret (9 h): 9.6% | WBC (9 h): 75.5 x10_2/uL | KIDNEY_L (9 h): 0.8 g | KIDNEY_R (9 h): 0.8 g | KIDNEY_TOTAL (9 h): 1.6 g | LIVER (9 h): 7.4 g | A/G (9 h): 0.9 | ALP (9 h): 1515.4 IU/L | ALT (9 h): 36.2 IU/L | AST (9 h): 70.2 IU/L | BUN (9 h): 11.4 mg/dL | CRE (9 h): 0.2 mg/dL | Ca (9 h): 10.8 mg/dL | Cl (9 h): 105.8 meq/L | DBIL (9 h): 0.006 mg/dL | GLC (9 h): 193.4 mg/dL | IP (9 h): 11.8 mg/dL | K (9 h): 3.6 meq/L | LDH (9 h): 81.2 IU/L | Na (9 h): 143.2 meq/L | PL (9 h): 146.8 mg/dL | RALB (9 h): 2.6 g/dL | TBIL (9 h): 0.052 mg/dL | TC (9 h): 84.2 mg/dL | TG (9 h): 39.6 mg/dL | TP (9 h): 5.6 g/dL | gamma-GTP (9 h): 1.4 IU/L | TERMINAL_BW (24 h): 196.6 g | APTT (24 h): 15.4 s | Bas (24 h): 0% | Eos (24 h): 1% | Fbg (24 h): 270.2 mg/dL | Hb (24 h): 12.6 g/dL | Ht (24 h): 37.4% | Lym (24 h): 74.6% | MCH (24 h): 21.1 pg | MCHC (24 h): 33.8% | MCV (24 h): 62.6 fL | Mono (24 h): 3.4% | Neu (24 h): 19.8% | PT (24 h): 12.3 s | Plat (24 h): 114.7 x10_4/uL | RBC (24 h): 598.2 x10_4/ul | Ret (24 h): 8.1% | WBC (24 h): 81.7 x10_2/uL | KIDNEY_L (24 h): 0.8 g | KIDNEY_R (24 h): 0.8 g | KIDNEY_TOTAL (24 h): 1.7 g | LIVER (24 h): 8.7 g | A/G (24 h): 0.9 | ALP (24 h): 1600.6 IU/L | ALT (24 h): 50.8 IU/L | AST (24 h): 79.6 IU/L | BUN (24 h): 14.2 mg/dL | CRE (24 h): 0.2 mg/dL | Ca (24 h): 10.5 mg/dL | Cl (24 h): 105.2 meq/L | DBIL (24 h): 0.004 mg/dL | GLC (24 h): 187.4 mg/dL | IP (24 h): 8 mg/dL | K (24 h): 4.2 meq/L | LDH (24 h): 114.4 IU/L | Na (24 h): 141.4 meq/L | PL (24 h): 136.8 mg/dL | RALB (24 h): 2.6 g/dL | TBIL (24 h): 0.04 mg/dL | TC (24 h): 76.8 mg/dL | TG (24 h): 55.4 mg/dL | TP (24 h): 5.5 g/dL | gamma-GTP (24 h): 1.4 IU/L
